Measured values from patent US6251950A, “Aliphatic propargylamines as cellular rescue agents” (University of Saskatchewan, priority 1998, dated 2001).

Experiments:
[1] = tested on: cerebellar granule cells (CGC); assay: in vitro; format: cell-based, Wistar rat
Source text: (§1) Cultures of cerebellar granule cells (CGC) can be induced into apoptosis by the addition of a high concentration of cytosine arabinoside (Ara C) (Dessi et al., 1995) and it has been shown that this is a p53 dependent apoptosis (Enokido et al, 1996). We have measured the antiapoptotic effect of N-(2-heptyl)propargylamine (2HPA) using this system and compared the results to those obtained with previously known aliphatic methyl propargylamines and deprenyl.
(§2) Cultures of CGC were obtained from 6-8 day old Wistar rat pups. Cultures were grown on glass in 35 mm petri dishes for 3 days and then used for experiments. 20 μl aliquots of drug solutions (Ara C, anti-apoptotic drugs, drug vehicles) were added to the medium of the cultures. 24 Hours later the cultures were fixed with FAM, and stained with bis-benzamide. Normal and apoptotic nuclei were counted to a total of 90-120 cells per culture. […] Concentrations in excess of 150 μM caused detachment of the cultures.
(§3) Compounds were added at the following concentrations: Ara C, 100 μM,

in vitro = format: cell-based, Wistar rat; conditions: rat, cerebellar granule cells
Source text: as §1, §2, §3

SOD1 mRNA, PC12 cells [2] = conditions: Li, et al., 1995; cited from earlier work
Parkinson's disease = conditions: cited from earlier work
Tourette's syndrome = Tourette's syndrome patients; cited from earlier work
PC12 cells = conditions: cited from earlier work
[3] = tested on: catecholaminergic neuroblastoma SH-SY5Y cells; conditions: cited from earlier work
[4] = rodents and humans; cited from earlier work
damaged neurons = conditions: some models; cited from earlier work
Alzheimer's disease = conditions: some patients; cited from earlier work
c-Fos = assay: Kainate-induced delayed c-Fos expression in hippocampal CA1 field; format: in vivo, rat
Protocol: (§4) The levels of both proteins were measured 24 h after a single injection of kainate (10 mg/Kg,i.p). The levels (assessed by quantitative immunohistochemical imaging) can be seen in Table 5.
(§5) Values are means ± sem (n = 5)
(§6) Kainate (10 mg/Kg, i.p.); Rats with seizures between stages IV severe to V
(§7) severe were used. R-2HPA (0.25 mg/Kg, s.c.) was administered 4 h after
(§8) kainate injection; HSP70 and c-Fos expression were assessed 24 h after
(§9) kainate treatment (for details of method please see Zhang et al, 1996).
(§10) Statistics were performed using ANOVA followed by Newman-Keuls multiple

LNGFR mRNA, PC12 cells = assay: LNGFR mRNA levels in PC12 cells (Northern Blot); format: cell-based
Protocol: The LNGFR mRNA levels were detected by Northern Blots using total RNA from cultured PC12 cells treated with R-2HPA for 24 hours. The blots were hybridized with LNGFR cDNA probe labelled with P^32 dCTP and the auto radiographs were scanned by a Beckman spectrometer.

SOD1 mRNA, PC12 cells [5] = assay: SOD1 mRNA levels in PC12 cells (Northern Blot); format: cell-based
Protocol: PC12 cells were used to study the gene regulation of SOD (copper, zinc-dependent type, i.e. SOD1) by (R)-2-heptylpropargylamine (R-2HPA).
The SOD1 mRNA levels were detected by Northern Blots using total RNA from cultured PC12 cells treated with R-2HPA for 24 hours. The blots were hybridized with SOD1 cDNA probe labelled with P^32 dCTP and the auto radiographs were scanned by a Beckman spectrometer.

mouse brain MAO-B = molecular target: T1, mouse brain MAO-B (Mus musculus, UniProt Q8BW75); assay: Inhibition in vivo of brain MAO-B activity after intraperitoneal administration
T1 construct: Striata were dissected from the brain two hours after i.p. administration of the drugs; from tissue; host or cells: mouse brain striata, dissected two hours after i.p. dosing
T1 sequence (Q8BW75 1-520): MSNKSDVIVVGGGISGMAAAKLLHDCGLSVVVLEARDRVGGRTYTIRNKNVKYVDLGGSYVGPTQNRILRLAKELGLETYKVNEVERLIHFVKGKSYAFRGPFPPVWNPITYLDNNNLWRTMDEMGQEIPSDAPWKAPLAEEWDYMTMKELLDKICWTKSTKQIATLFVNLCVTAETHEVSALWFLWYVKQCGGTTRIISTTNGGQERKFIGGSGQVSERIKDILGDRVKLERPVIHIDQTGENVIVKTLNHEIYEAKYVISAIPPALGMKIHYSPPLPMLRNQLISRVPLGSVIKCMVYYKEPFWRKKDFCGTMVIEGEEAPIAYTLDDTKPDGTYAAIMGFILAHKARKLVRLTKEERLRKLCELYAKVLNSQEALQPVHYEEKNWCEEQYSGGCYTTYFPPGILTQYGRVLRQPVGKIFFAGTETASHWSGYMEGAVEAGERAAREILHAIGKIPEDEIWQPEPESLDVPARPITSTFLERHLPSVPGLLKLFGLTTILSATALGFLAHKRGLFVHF
Protocol: Results are the average of two independent triplicate experiments for each i.p. dose. The doses were 0.5, 1, 2, 5, 10, 20 mg/Kg. Striata were dissected from the brain two hours after i.p. administration of the drugs. MAO-B activities were then determined immediately (Yu et al 1992). The values were estimated from dose-response curves.

HSP70 = assay: Kainate-induced HSP70 expression in hippocampal CA1 field; format: in vivo, rat
Protocol: as §4, §5, §6, §7, §8, §9, §10

hippocampal CA1 neurons = assay: Kainic acid-induced neuronal damage; format: in vivo, rat; conditions: in words
[6] = tested on: pyramidal neurons in the hippocampus (CA1 neurons); assay: Hypoxia/ischaemia model, CA1 neuron survival; format: in vivo, rat
[7] = molecular target: T2, rat liver mitochondrial monoamine oxidase B (Rattus norvegicus, UniProt P19643); assay: biochemical; format: biochemical
T2 sequence (P19643 1-520): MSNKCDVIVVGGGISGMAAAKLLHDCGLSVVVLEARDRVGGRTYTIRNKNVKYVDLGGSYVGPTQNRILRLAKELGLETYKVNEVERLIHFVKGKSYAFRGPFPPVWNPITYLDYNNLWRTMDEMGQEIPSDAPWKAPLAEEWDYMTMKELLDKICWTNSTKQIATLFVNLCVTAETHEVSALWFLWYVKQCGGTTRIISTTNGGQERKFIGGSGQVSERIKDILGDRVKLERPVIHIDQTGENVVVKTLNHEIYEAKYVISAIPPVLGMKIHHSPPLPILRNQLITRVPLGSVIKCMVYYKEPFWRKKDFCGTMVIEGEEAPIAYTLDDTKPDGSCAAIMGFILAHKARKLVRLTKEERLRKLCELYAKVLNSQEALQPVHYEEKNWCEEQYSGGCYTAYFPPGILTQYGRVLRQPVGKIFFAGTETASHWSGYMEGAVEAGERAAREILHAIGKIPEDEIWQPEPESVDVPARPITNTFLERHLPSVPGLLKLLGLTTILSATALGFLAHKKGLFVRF
Protocol: Enzyme activity was assessed using a radiometric method as previously described (Yu et al, 1992).

[8] = after kainate, rat hippocampal CA1 region
[9] = kainate 10 mg/Kg i.p., R-2HPA 0.25 mg/Kg s.c. 4 h after, assessed 24 h after kainate, mean ± sem (n = 5), *p < 0.01

SMILES: Nc1ccn([C@@H]2O[C@H](CO)[C@@H](O)[C@@H]2O)c(=O)n1 [Ara C, cytosine arabinoside]
- Percent Apoptotic Nuclei (Ara C alone) ([1]; Ara C 100 μM, mean ± sem of 4 cultures): 14.6 ± 0.9%
- MCC at 24 h (in vitro): > 150 µM

SMILES: C#CCN(C)[C@H](C)Cc1ccccc1 [R-deprenyl]
- SOD1 mRNA induction (previous findings) (SOD1 mRNA, PC12 cells [2]): can induce SOD1 mRNA in a dose dependent manner
- effect in Parkinson's disease (Parkinson's disease; adjuvant to L-dopa): effective adjuvant to L-dopa
- onset of symptoms in Parkinson's disease (Parkinson's disease; early otherwise untreated cases, administered alone): delay onset of symptoms
- symptoms of attention deficit disorder (Tourette's syndrome): improved
- blocking of Ara C induced apoptosis ([1]; 10^-7 M (FIG. 1c)): completely blocked
- prevention of apoptosis in PC12 cells (PC12 cells): can prevent apoptosis
- cytotoxicity of dopamine towards SH-SY5Y cells [3]: enhance the cytotoxicity of dopamine
- life span and sexual activity [4]: prolong life span and sexual activity
- concentrations required to prevent apoptosis versus minimum necessary for MAO-B inhibition (damaged neurons): at least an order of magnitude lower
- clinical condition of Alzheimer patients (Alzheimer's disease): improved the clinical condition of some Alzheimer patients

SMILES: C#CCN[C@H](C)CCCCC.Cl [Example R-2HPA, (R)-N-2-Heptylpropargylamine hydrochloride]
- delayed c-Fos expression (c-Fos; [8]): able to block the expression of both genes
- Delayed c-Fos (Kainate + compound) (c-Fos; [9]): 4.5 ± 3.7
- LNGFR mRNA (LNGFR mRNA, PC12 cells; PC12 cells): downregulated LNGFR mRNA
- mrna remaining at 1 µM (LNGFR mRNA, PC12 cells; Rattus norvegicus, PC-12, 1 μM, 24 hours, Mean ± SD (n = 4), **p < 0.01, control 100 ± 5.4): 68.8 ± 16.4%
- SOD1 gene expression (SOD1 mRNA, PC12 cells [5]; PC12 cells): stimulate SOD1 gene expression
- SOD1 mRNA level, % of control at 1 µM (SOD1 mRNA, PC12 cells [5]; Rattus norvegicus, PC-12, 1 μM, 24 hours, Mean ± SD (n = 4), **p < 0.01, control 100 ± 20): 184 ± 41%
- inhibitory effect on mouse brain MAO-B (mouse brain MAO-B; i.p., compared with R-2HMP): weaker inhibitory effect
- Comparison to most effective inhibitor (mouse brain MAO-B; in vivo, i.p., relative to R-2HMP): 5%
- ED50 value fold higher than that of R-2HMP (mouse brain MAO-B; mouse brain MAO-B, i.p.): 20 fold
- ED50 (mouse brain MAO-B; mouse, ip, 2 h, read-out: IC50 (mg/Kg) (MAO-B, in vivo)): 4 mg/kg
- HSP70 expression (HSP70; [8]): able to block the expression of both genes
- HSP70 (Kainate + compound) (HSP70; [9]): 4.6 ± 2.0
- prevention of kainic acid-induced neuronal damage (hippocampal CA1 neurons): capable of preventing kainic acid-induced neuronal damage
- mean survival of CA1 neurons, percentage of vehicle treated controls (Table 2) ([6]; 0.1 μmol/kg, s.c., vehicle = 100%, ± sem (n = 6-10), **P < 0.01): 320 ± 48%
- response vs control in vivo at 0.1 µmol/kg ([6]; Rattus norvegicus, Neuron, sc, 0.1 μmol/kg, s.c., vehicle = 100%, ± sem (n = 6-10), *P < 0.05, **P < 0.01, read-out: Percentage survival of CA1 neurones, of vehicle treated controls (Table 4)): 320 ± 48%
- potency following oral administration versus R-2HMP ([6]; oral): more potent than its aliphatic methyl propargylamine analogue, R-2HMP
- activity in the hypoxia/ischaemia model ([6]; s.c.): Most active
- Comparison to most effective MAO-B inhibitor in group ([7]; in vitro, relative to most effective inhibitor in group): 0.8%
- IC50 ([7]; substrate PE (β-phenylethylamine) 1.9 × 10^-5 M, average of at least 2 independent triplicate experiments): 4 µM
